Molecules are shown by their SMILES. Values after ≈ are worked out from the molar mass of the structure shown.

One data set deals with T1, purified human PRX3 (Homo sapiens, UniProt P30048).
T1 construct: made in house
T1 sequence (P30048 62-256): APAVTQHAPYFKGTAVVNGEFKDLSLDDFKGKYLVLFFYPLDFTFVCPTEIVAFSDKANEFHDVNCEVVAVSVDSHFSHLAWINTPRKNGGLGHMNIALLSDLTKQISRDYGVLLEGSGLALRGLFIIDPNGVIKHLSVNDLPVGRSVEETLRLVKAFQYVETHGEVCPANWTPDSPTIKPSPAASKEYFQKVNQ
Kind of data set: Biochemical PRX3 Inhibition Assay (non-reducible crosslink by SDS PAGE + single adduct by MALDI-TOF MS). The note with it: 100 μM PRX3 with TRX2/thioredoxin reductase/NADPH system and hydrogen peroxide, 1-2 hr at 37° C. The text has this: The compounds described herein generally react with two essential cysteine residues in the mitochondrial peroxidase PRX3, leading to the formation of a non-reducible, covalent crosslink of two PRX3 monomers. This crosslink inactivates PRX3. Increased PRX3 crosslink is associated with mitochondrial stress, increased cell death in cell models of malignant mesothelioma and is associated with decreased tumor volume in a mouse model. Cunniff et al. (2015) PloS one 10, e0127310.
(§1) To test the activity of compounds, two complimentary assays were used as described below. The Biochemical PRX3 Inhibition Assay tests the ability of each compound to crosslink PRX3 in a simple, in vitro system. In the Cellular Activity Assay, we are testing the ability of compounds to kill SK—OV-3 ovarian cancer cells.
This assay tests the ability of each compound to form a covalent adduct with PRX3. The assay is performed as described in Nelson et al. (2021) Antioxidants (Basel) 10, 150; and Cunniff et al. (2015) PloS one 10, e0127310, and follows the appearance of non-reducible PRX3 crosslinks by SDS PAGE gel electrophoresis and follows the appearance of single PRX3 adducts by mass spectrometry. For this assay, purified human PRX3, hydrogen peroxide (the PRX3 substrate) and all the components required to enable PRX3 to catalytically cycle (thioredoxin-thioredoxin reductase-NAPDH system) are included (details below).
The biochemical PRX3 Inhibition assay contains 100 μM PRX3, 50 μM human TRX2, 0.5 μM mouse thioredoxin reductase, and a NADPH regenerating system composed of 3.2 mM glucose 6-phosphate, 3.2 U/ml glucose 6-phosphate dehydrogenase and 0.4 mM NADPH. Samples are incubated for 1-2 hr at 37° C. with either 0.2 mM TS (positive control), compounds or an equivalent volume of DMSO (negative control). During this incubation, hydrogen peroxide is added to induce turnover of PRX3. Reactions are stopped by the addition of a buffer containing 100 mM dithiothreitol (to break disulfide bonds) and SDS (detergent to denature proteins). NADPH, Glucose 6-Phosphate, and glucose 6-phosphate dehydrogenase were purchased from Sigma Aldrich. PRX3, thioredoxin, and thioredoxin reductase were all purified to >98% purity in the Lowther laboratory according to protocols referenced in Nelson et al. (2021) Antioxidants (Basel) 10, 150; and Cunniff et al. (2015) PloS one 10, e0127310.
To measure the amount of PRX3 crosslink, proteins in the reaction were separated by SDS-polyacrylamide gel electrophoresis and stained for total protein using GelCode Blue (Life Technologies). The amount of unmodified PRX3 and TS-PRX3 crosslink was measured by densiometric analysis of the signal for the PRX3 band running at the MW of a PRX3 crosslink (˜46 kDa) compared to the PRX3 signal at the MW of the un-modified PRX3 (−23 kD).
To measure covalent adduct formation on a single PRX3 monomer, each reaction was exchanged into a mass spectrometry compatible buffer containing 40 mM ammonium citrate, pH 8.3 made in HPLC water. Sample was mixed 1:1 with a matrix solution containing 30 mg/mL sinapinic acid in 70% (vol/vol) acetonitrile, 0.2% formic acid and spotted to onto the sample plate. PRX3 mass was measured by MALDI-TOF MS analysis on a Bruker Daltonics MALDI-TOF MS spectrometer. Spectra were analyzed in FLEXAnalysis Software. The intensity of the reduced PRX3 peak (SH) and intensity of the analog adduct peak was determined and corrected for background signal at the adduct peak in the DMSO control. The fraction of single analog adduct in the monomer peak was determined by dividing the intensity of the adduct peak by the summed intensity of the SH and adduct peaks.

Another data set can be described thus: Solubility Assay (HPLC). The class given is physicochemical. As to conditions: HEPES/NaCl buffer, aqueous with cosolvent or surfactant or cyclodextrin, kinetic from dmso stock; 20 mM HEPES, 100 mM NaCl, pH 7.5, 18-24 hours at ambient temperature; read-out: Solubility. How it is done:
A 20 mM stock solution was made for each compound in DMSO. To measure solubility, 0.03-0.05 mL of the stock was added to 0.27 mL 20 mM HEPES, 100 mM NaCl, pH 7.5. The solution was mixed and rotated 18-24 hours at ambient temperature. The next day, solutions were centrifuged for 10 min at 20,000×g at […] to remove insoluble, solid material. Next, 100 μL of the supernatant containing the soluble compound was added to 900 μL DMSO and High Performance Liquid Chromatography was performed as described in Table 1 and either HIPLC gradient 1 (Table 2) or HIPLC gradient 2 (Table 3). For each analog, a 200 μM standard and a 20 μM standard were prepared and run in parallel (standards were dissolved completely in […]). The amount ofLcompound in the experimental sample was calculated by comparing the area under the curve for compound peak to the area for the closest standard and correcting for dilution.

For data set [1], the system named is human SK—OV-3 ovarian cancer cells. Briefly: Cellular Activity Assay (cytotoxicity, crystal violet). In kind it is cell-based. As to conditions: Homo sapiens, SK—OV-3 cells, treated for 48 hr, 0.1-100 μM, crystal violet absorbance at 540 nm.
Source text: as §1
The Cellular Activity Assay measures the EC50 of each compound in human SK—OV-3 ovarian cancer cells TS to be taken into the cell, transported to the mitochondria, and crosslink PRX3.
The cytotoxicity of compounds was measured as described in Nelson et al. (2021) Antioxidants (Basel) 10, 150; Cunniff et al. (2015) PloS one 10, e0127310; and Newick et al. (2012) PloS one 7, e39404. SK—OV-3 is an adherent, epithelial, adenocarcinoma cell line obtained from ATCC (ref #: HTB-77). SK—OV-3 cells are resistant to the commonly used chemotherapeutics, cis-platinum and doxorubicin. For this […], SK—OV-3 cells were plated in a 96-well plate. After 24 h recovery, the cells were treated for 48 hr with multiple concentrations of each compound ranging from 0.1-100 μM.
Cells were washed with PBS to remove dead cells and the remaining live cells were fixed with 3.0% formaldehyde and stained with 0.1% crystal violet. The amount of crystal violet was determined by reading the absorbance at 540 nm (crystal violet dye dissolved in 100% methanol) using a plate reader. The signal for crystal violet dye is proportional to the biomass of remaining live cells. GraphPad Prism9 software was used to calculate the effective inhibitory concentration (EC50) of test compounds. Results for each compound, are normalized to the amount of cells in control wells treated with the equivalent concentration of DMSO (negative control). TS or Compound 4 were included in each set of assays as a positive control.

A word on the solubility: it is the concentration that dissolves in the medium under given conditions. What is called EC50 is the concentration at which the effect is half-maximal. A low value points to greater potency. Consider `C=C(NC(=O)c1csc(-c2ccc(CNC(=O)OCC3CCOCC3)cc2)n1)C(=O)NC(=C)C(=O)OC` [Compound 45, Methyl 2-(2-(2-(4-(((((tetrahydro-2H-pyran-4-yl)methoxy)carbonyl)amino)methyl)phenyl)thiazole-4-carboxamido)acrylamido)acrylate], for which the “PRX3 Inhibition (Crosslink + Mono-adduct)” value (“PRX3 Inhibition” for short) on purified human PRX3 is listed as “++ (50-90%)”. For the same molecule, the solubility in “Solubility Assay (HPLC)” is under 100 µM. The same molecule yielded an EC50 in data set [1] of 1 to 10 µM.

For the molecule `C=C(NC(=O)c1csc(-c2ccc(CNC(=O)CCNC(=O)OC(C)(C)C)cc2)n1)C(=O)NC(=C)C(=O)OC` [Compound 38, Methyl 2-(2-(2-(4-((3-((tert-butoxycarbonyl)amino)propanamido)methyl)phenyl)thiazole-4-carboxamido)acrylamido)acrylate], the “PRX3 Inhibition” value on purified human PRX3 is recorded as “++ (50-90%)”. For the same molecule, in “Solubility Assay (HPLC)”, the solubility is under 100 µM. In data set [1], the EC50 lay in the range of 1 to 10 µM.

`C=C(NC(=O)c1csc(-c2ccc(CNC(=O)OCCCCCCN=[N+]=[N-])cc2)n1)C(=O)NC(=C)C(=O)OC` [Compound 50, Methyl 2-(2-(2-(4-(((((6-azidohexyl)oxy)carbonyl)amino)methyl)phenyl)thiazole-4-carboxamido)acrylamido)acrylate]: the “PRX3 Inhibition” value at purified human PRX3 was “+ (5-50%)”. Moreover, in the data set “Solubility Assay (HPLC)”, the solubility is under 100 µM. This molecule also gave an EC50 in data set [1] of 1 to 10 µM.

Take `C=C(NC(=O)c1csc(N2CCC(CNC(=O)CCCCCCl)CC2)n1)C(=O)NC(=C)C(=O)OC` [Compound 40, Methyl 2-(2-(2-(4-((6-chlorohexanamido)methyl)piperidin-1-yl)thiazole-4-carboxamido)acrylamido)acrylate]: the “PRX3 Inhibition” value at purified human PRX3 is reported as “+++ (>90%)”. Moreover, the solubility in the data set “Solubility Assay (HPLC)” was 100 to 1000 µM (≈ 52.6 to 526 µg/mL). For the same molecule, the EC50 in data set [1] was in the range of 10 to 25 µM.

In the case of `C=C(NC(=O)c1csc(-c2cccc(CNC(=O)OC(C)(C)C)c2)n1)C(=O)NC(=C)C(=O)OC` [Compound 43, Methyl 2-(2-(2-(3-(((tert-butoxycarbonyl)amino)methyl)phenyl)thiazole-4-carboxamido)acrylamido)acrylate], the “PRX3 Inhibition” value at purified human PRX3 was “+++ (>90%)”. Also, in “Solubility Assay (HPLC)”, the solubility was under 100 µM. The molecule also showed an EC50 in data set [1] of 1 to 10 µM.

Regarding `C=C(NC(=O)c1csc(-c2ccc(CNC(=O)CCCCCCl)cc2)n1)C(=O)NC(=C)C(=O)OC` [Compound 37, Methyl 2-(2-(2-(4-((6-chlorohexanamido)methyl)phenyl)thiazole-4-carboxamido)acrylamido)acrylate], at purified human PRX3, the “PRX3 Inhibition” value is recorded as “+ (5-50%)”. In “Solubility Assay (HPLC)”, the solubility was under 100 µM. For the same molecule, in data set [1], the EC50 lay in the range of 1 to 10 µM.

For `C=C(NC(=O)c1csc(N2C[C@@H](C)N(C(=O)OC(C)(C)C)[C@@H](C)C2)n1)C(=O)NC(=C)C(=O)OC` [Compound 56, Tert-butyl (cis)-4-(4-((3-((3-methoxy-3-oxoprop-1-en-2-yl)amino)-3-oxoprop-1-en-2-yl)carbamoyl)thiazol-2-yl)-2,6-dimethylpiperazine-1-carboxylate], the “PRX3 Inhibition” value on purified human PRX3 is “++ (50-90%)”. The solubility in “Solubility Assay (HPLC)” is under 100 µM. In data set [1], this molecule showed an EC50 of 1 to 10 µM.

Take `C=C(NC(=O)c1csc(-c2ccc(CNC(=O)CCCCCN=[N+]=[N-])cc2)n1)C(=O)NC(=C)C(=O)OC` [Compound 39, Methyl 2-(2-(2-(4-((6-azidohexanamido)methyl)phenyl)thiazole-4-carboxamido)acrylamido)acrylate]: on purified human PRX3, the “PRX3 Inhibition” value is given as “++ (50-90%)”. The solubility in the data set “Solubility Assay (HPLC)” is under 100 µM. The same molecule showed an EC50 in data set [1] of 1 to 10 µM.

Take `C=C(NC(=O)c1csc(-c2ccc(CNC(=O)C3CCOCC3)cc2)n1)C(=O)NC(=C)C(=O)OC` [Compound 36, Methyl 2-(2-(2-(4-((tetrahydro-2H-pyran-4-carboxamido)methyl)phenyl)thiazole-4-carboxamido)acrylamido)acrylate]: at purified human PRX3, the “PRX3 Inhibition” value is “+++ (>90%)”. Besides, the solubility in “Solubility Assay (HPLC)” is under 100 µM. The EC50 in data set [1] lay within 1 to 10 µM.

For `C=C(NC(=O)c1csc(N2CCC(NC(=O)C3CCOCC3)CC2)n1)C(=O)NC(=C)C(=O)OC` [Compound 46, Methyl 2-(2-(2-(4-(tetrahydro-2H-pyran-4-carboxamido)piperidin-1-yl)thiazole-4-carboxamido)acrylamido)acrylate], on purified human PRX3, the “PRX3 Inhibition” value is recorded as “+++ (>90%)”. Besides, in “Solubility Assay (HPLC)”, the solubility fell in the range of 100 to 1000 µM (≈ 49.2 to 492 µg/mL). The EC50 in data set [1] was in the range of 1 to 10 µM.

Turning to `C=C(NC(=O)c1csc(-c2ccc(CNC(=O)COCCOC)cc2)n1)C(=O)NC(=C)C(=O)OC` [Compound 35, Methyl 2-(2-(2-(4-((2-(2-methoxyethoxy)acetamido)methyl)phenyl)thiazole-4-carboxamido)acrylamido)acrylate], on purified human PRX3, the “PRX3 Inhibition” value was “+++ (>90%)”. In “Solubility Assay (HPLC)”, the solubility lay in the range of 100 to 1000 µM (≈ 50.3 to 503 µg/mL). In data set [1], this molecule had an EC50 of 1 to 10 µM.

`C=C(NC(=O)c1csc(N2CCN(C(=O)COCCOC)CC2)n1)C(=O)NC(=C)C(=O)OC` [Compound 47, Methyl 2-(2-(2-(4-(2-(2-methoxyethoxy)acetyl)piperazin-1-yl)thiazole-4-carboxamido)acrylamido)acrylate]: at purified human PRX3, the “PRX3 Inhibition” value was “++ (50-90%)”. The solubility in “Solubility Assay (HPLC)” is over 1000 µM. In addition, the EC50 in data set [1] (SK-OV-3, 48 h) lay in the range of 25 to 100 µM.

For the origin of these results see US20250011316A1, “PEROXIREDOXIN 3 INHIBITORS AND METHODS OF USE FOR TREATING CANCER” (Wake Forest University Health Sciences, priority 2022, published 2025).
